Source: patent US20140179688A1, “PLOD-2 Modulators and Their Use in the Treatment of Skin” (AVON PRODUCTS, INC., priority 2012, published 2014)

Tested on: PLOD-2
Assay: PLOD-2 expression by qRT-PCR versus other anti-aging actives (Example 5)
Assay type: cell-based, Human
Conditions: for Significant Increases in PLOD-2 Expression: 48 hours, fibroblasts, relative to vehicle; for induction of a significant level of PLOD-2 in skin cells: concentrations as in Table 5
Procedure: Normal Human Dermal Fibroblasts were Grown in DMEM (Mediatech; cat. #: 15-013-CV) containing 10% Fetal Bovine Serum (Perbio; cat. #: SH30070.03), Penicillin/Streptomycin (Mediatech, Cat #30-001-C1), L-Glutamine (Mediatech; cat. #: 25-005-CI) at 37° C. and 10% CO2. […] RNA was isolated using RNeasy RNA extraction kit (74106) from Qiagen. RNA concentrations were determined using NanoDrop Spectrophotometer ND 1000 ([…]).
RT reactions were conducted in a total volume of 20 μl using the High Capacity cDNA kit from AB (PN 4368814). The RT mixture was prepared to contain 2 μl 10× TaqMan RT buffer, 1.2 μl dNTP mix ([…]), 1.0 μl 10× Random Hexamer, 1 μl RNase Inhibitor, 1 μl MultiScribe Reverse Transcriptase ([…]), 100 ng of RNA, and RNase-free water to make up the final volume of 20 μl. The reaction was incubated at 25° C. for 10 min, 45° C. for 45 min, and then 95° C. for 5 min in a BIORAD MY CYCLER.
QPCR was carried out using Applied Biosystems Universal PCR Master Mix (PN 4369016). The mixture contained 10 μl of Taqman Universal PCR mix, 1 μl of primer and probe mix, 2 μl of RT product, and 7 μl of deionized water. All probes, Taqman assays were, were purchased from Applied Biosystems, Hs01118190 ml for PLOD-2, and human GAPDH (PN 4352934). The temperature profiles for qPCR were 50° C. for 2 min, and 95° C. for 10 min for 1 cycle, then at 95° C. for 15 sec, and 60° C. for 1 min for 40 cycles carried out in Stratagene Mx 3005P qPCR machine.
RNA isolated from cells were analyzed by qRT-PCR for expression levels of PLOD-2, using GAPDH as an internal control.

Row | Compound | Significant Increases in PLOD-2 Expression (5 μM) | Significant Increases in PLOD-2 Expression (10 μM) | induction of a significant level of PLOD-2 in skin cells | other results
1 | Oc1ccc(C=Cc2cc(O)cc(O)c2)cc1 [Resveratrol] | No | No | did not induce a significant level of PLOD-2 | –
2 | COc1ccc(Cc2nc(=O)c(CCC(=O)N3CCC(C)CC3)n[nH]2)cc1OC [ALB-H09784893] | – | – | significantly stimulate | –
3 | CC1=C(/C=C/C(C)=C/C=C/C(C)=C/CO)C(C)(C)CCC1 [Retinol] | No | No | did not induce a significant level of PLOD-2 | –
4 | Hyaluronic Acid | – | – | did not induce a significant level of PLOD-2 | Significant Increases in PLOD-2 Expression (0.001%): No; Significant Increases in PLOD-2 Expression (0.005%): No
5 | N-Acetyl-Tyrosinamide | – | – | significantly stimulate | –
6 | N#Cc1cccc(CN2CCNC(=O)CC2c2nccs2)c1 (centres unmarked) [ALB-H16063163] | – | – | significantly stimulate | –
7 | NC(=O)c1cccnc1 [Niacinamide] | – | – | did not induce a significant level of PLOD-2 | Significant Increases in PLOD-2 Expression (0.05%): No; Significant Increases in PLOD-2 Expression (0.10%): No
8 | O=C(O)CO [Glycolic Acid (AHA), Glycolic Acid] | – | – | did not induce a significant level of PLOD-2 | Significant Increases in PLOD-2 Expression (0.05%): No; Significant Increases in PLOD-2 Expression (0.10%): No
9 | COC1=C(OC)C(=O)C(C/C=C(\C)CC/C=C(\C)CC/C=C(\C)CC/C=C(\C)CC/C=C(\C)CC/C=C(\C)CC/C=C(\C)CC/C=C(\C)CC/C=C(\C)CCC=C(C)C)=C(C)C1=O [Coenzyme Q10] | Yes (11%) | Yes (24%) | – | –
